Measurements from patent publication EP3177293B1, “METHOD OF TREATING SKIN CONDITIONS” (Astrazeneca AB, priority 2014, dated 2015).
Like-named read-outs stand apart in the source and are kept apart here.

Key:
[1] = toxicokinetic analysis of plasma exposure in dogs, oral dosing; format: in vivo, beagle dogs
From the text: (§1) Doses and frequency of dosing were selected following consideration of species specific tolerability and pharmacokinetic parameters. Doses predicted to result in exposures which were likely to cause maximum DGAT1 inhibition without resulting in intolerability were chosen as the highest dose level.

human DGAT2 = target: T1, human DGAT2 (Homo sapiens, UniProt Q96PD7); assay: DGAT2 activity; format: biochemical
T1 sequence (Q96PD7 1-388): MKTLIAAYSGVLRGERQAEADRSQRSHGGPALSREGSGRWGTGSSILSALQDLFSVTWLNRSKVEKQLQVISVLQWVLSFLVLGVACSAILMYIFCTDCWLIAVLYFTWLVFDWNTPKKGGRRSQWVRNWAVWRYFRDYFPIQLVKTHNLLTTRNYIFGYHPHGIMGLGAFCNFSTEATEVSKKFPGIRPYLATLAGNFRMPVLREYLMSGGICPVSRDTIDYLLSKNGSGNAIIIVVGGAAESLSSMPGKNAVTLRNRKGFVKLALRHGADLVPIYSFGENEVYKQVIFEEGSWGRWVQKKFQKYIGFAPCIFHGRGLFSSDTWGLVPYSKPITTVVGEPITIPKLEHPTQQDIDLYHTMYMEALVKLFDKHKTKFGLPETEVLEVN

sebaceous glands [2] = test system: sebaceous glands
From the text: Up to 32 (16 male and 16 female) mice (Crl:CD-1(ICR)) per dose group were obtained from the AstraZeneca breeding unit (Alderley Park, Macclesfield, UK). The animals, aged 7-8 weeks, were allowed to acclimatise for at least one week, were multiple-housed, sexes separately, up to 5/cage. Water from the site drinking water supply and RM1 (E) SQC pelleted diet supplied by Special Diets Services Ltd., England, was freely available. Nesting material (Tapvei Aspen Chips, Tapvei small aspen bricks, Finland, sizzle nests and paper shavings, and polycarbonate tunnels, Datesand,UK) was provided. Animals were terminated for scheduled necropsy on the day after the final dose. The mice were killed by administration of halothane.
(§2) For pharmacokinetic analysis, blood samples were collected into lithium heparin tubes from animals on either the first or penultimate day of the study. Plasma was separated by centrifugation at 4°C and stored for analysis at -20°C. […] Exposure data are presented as FDM (free drug concentration in blood plasma required to inhibit the microsomal DGAT1 enzyme by 50%) and are mean data for each dose level. […] At the end of each experiment, animals were terminally anaesthetised and representative samples of skin (mammary gland region for mice, abdominal region for dogs) were taken at necropsy, placed in 10% buffered formalin and processed for histopathological assessment. Conventional processing into wax and haematoxylin and eosin staining of sections preceded their light microscopic examination.
(§3) Light microscopic examination and histology scoring was performed by a certified pathologist and findings were peer reviewed by a second pathologist. Each section of skin contained from 15 - 25 hair follicles in different stages of differentiation with associated sebaceous glands that were cut in multiple planes. […] Therefore, assessment of sebaceous cell/gland atrophy was based on their appearances irrespective of the stage of differentiation of the associated hair follicle in all instances.

human ACAT2 = target: T2, human ACAT2 (Homo sapiens, UniProt O75908); assay: ACAT2 enzyme inhibition; format: biochemical
T2 sequence (O75908 1-522): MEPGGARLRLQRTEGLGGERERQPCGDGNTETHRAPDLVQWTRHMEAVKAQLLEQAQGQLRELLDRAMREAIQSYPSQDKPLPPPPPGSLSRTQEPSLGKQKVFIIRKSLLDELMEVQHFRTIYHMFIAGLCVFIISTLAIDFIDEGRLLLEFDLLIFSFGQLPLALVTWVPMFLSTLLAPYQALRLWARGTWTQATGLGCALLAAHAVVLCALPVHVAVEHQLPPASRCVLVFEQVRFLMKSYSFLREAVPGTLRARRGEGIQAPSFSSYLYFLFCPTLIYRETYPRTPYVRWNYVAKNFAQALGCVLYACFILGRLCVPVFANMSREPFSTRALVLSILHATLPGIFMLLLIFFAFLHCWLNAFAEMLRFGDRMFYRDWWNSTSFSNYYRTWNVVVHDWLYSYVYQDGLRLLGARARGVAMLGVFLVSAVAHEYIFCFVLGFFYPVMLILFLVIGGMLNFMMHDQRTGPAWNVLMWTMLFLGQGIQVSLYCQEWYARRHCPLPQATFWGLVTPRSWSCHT

skin = details: clinical trials of short duration (Denison et al. 2013); cited from earlier work
dog DGAT1 = target: T3, dog DGAT1 (Canis lupus familiaris, UniProt A0A8I3NFS1); assay: in vitro recombinant DGAT1 enzyme assay (dog); format: biochemical
T3 sequence (A0A8I3NFS1 67-492): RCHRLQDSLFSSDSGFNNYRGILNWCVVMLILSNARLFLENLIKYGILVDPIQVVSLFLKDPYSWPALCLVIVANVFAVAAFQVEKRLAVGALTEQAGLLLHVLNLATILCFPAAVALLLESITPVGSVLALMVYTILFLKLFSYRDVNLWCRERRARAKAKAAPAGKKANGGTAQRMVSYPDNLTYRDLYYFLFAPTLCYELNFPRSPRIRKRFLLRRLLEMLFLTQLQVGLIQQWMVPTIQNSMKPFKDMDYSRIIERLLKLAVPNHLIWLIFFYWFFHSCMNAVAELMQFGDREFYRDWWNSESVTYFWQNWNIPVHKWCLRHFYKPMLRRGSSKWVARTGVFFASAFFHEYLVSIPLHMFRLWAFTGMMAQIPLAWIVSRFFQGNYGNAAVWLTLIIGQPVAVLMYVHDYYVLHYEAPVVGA

human DGAT1 = target: T4, human DGAT1 (Homo sapiens, UniProt O75907); assay: in vitro recombinant DGAT1 enzyme assay (human); format: biochemical
T4 sequence (O75907 1-488): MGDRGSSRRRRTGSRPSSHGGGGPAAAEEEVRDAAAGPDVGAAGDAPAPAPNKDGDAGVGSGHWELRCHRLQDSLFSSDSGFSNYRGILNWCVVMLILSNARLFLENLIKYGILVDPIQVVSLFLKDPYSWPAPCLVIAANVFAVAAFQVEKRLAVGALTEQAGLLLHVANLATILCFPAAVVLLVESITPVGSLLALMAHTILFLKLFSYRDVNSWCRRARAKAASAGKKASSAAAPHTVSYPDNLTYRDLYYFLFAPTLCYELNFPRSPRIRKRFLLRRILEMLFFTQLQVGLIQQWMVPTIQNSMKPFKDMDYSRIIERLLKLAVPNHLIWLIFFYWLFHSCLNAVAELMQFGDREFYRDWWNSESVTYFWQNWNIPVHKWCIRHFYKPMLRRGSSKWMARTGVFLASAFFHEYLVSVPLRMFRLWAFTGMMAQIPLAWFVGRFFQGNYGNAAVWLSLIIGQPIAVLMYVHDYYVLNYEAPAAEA

[3] = toxicokinetic analysis of plasma exposure in mice, oral dosing; format: in vivo, mice (Crl:CD-1(ICR)); details: for Cmax as multiple of mouse microsomal DGAT1 enzyme IC50 / Cmin as multiple of DGAT1 IC50: oral once daily
From the text: as §1
The mice were killed by administration of halothane.

mouse DGAT1 = target: T5, mouse DGAT1 (Mus musculus, UniProt Q9Z2A7); assay: in vitro recombinant DGAT1 enzyme assay (mouse); format: biochemical
T5 sequence (Q9Z2A7 1-498): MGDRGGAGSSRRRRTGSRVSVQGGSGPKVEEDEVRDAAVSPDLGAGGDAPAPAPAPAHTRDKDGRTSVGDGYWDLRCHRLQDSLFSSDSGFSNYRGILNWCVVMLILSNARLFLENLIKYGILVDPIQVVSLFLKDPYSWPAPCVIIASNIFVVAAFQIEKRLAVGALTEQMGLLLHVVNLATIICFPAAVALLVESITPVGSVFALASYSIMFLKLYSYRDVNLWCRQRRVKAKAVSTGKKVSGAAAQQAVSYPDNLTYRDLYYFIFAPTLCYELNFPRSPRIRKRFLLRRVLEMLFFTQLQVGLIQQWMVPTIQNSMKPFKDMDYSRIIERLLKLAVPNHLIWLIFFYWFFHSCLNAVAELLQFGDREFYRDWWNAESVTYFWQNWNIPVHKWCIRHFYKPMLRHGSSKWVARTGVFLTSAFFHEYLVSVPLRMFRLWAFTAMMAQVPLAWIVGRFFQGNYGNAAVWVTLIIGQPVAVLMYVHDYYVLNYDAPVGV

sebaceous glands [4] = test system: sebaceous glands; remark: listed apart in the source
Experimental: Up to 8 (4 male and 4 female) beagle dogs per treatment group were obtained from the AstraZeneca breeding unit (Alderley Park, Macclesfield, UK). […] All animals were observed daily for clinical signs of toxicity. Body weight and food consumption was measured daily prior to dosing. Animals were single-penned, with access to an exercise area with others of the same sex and group, for the major part of each day. Animals had free access to water from the site drinking water supply. A set weight of SDS Dog-D3 (E) SQC, supplied by Special Diet Services Ltd, England, was provided daily, in the afternoon, access being allowed for up to approximately 2 hours. Toys (e.g., bones) were provided for additional environmental enhancement. Animals were terminated for scheduled necropsy on the day after the final dose. The dogs were killed by intravenous administration of sodium pentobarbitone and then exsanguinated.
as §2, §3

[5] = mouse, 1 month and 6 month studies
[6] = 1mg/kg/day dose group, 180 day study
[7] = 600 mg/kg/day dose group, 7 day study

Cc1nc(C)c(-c2ccc([C@H]3CC[C@H](CC(=O)O)CC3)cc2)nc1C(N)=O [2-((1R,4R)-4-(4-(6-carbamoyl-3,5-dimethylpyrazin-2-yl)phenyl)cyclohexyl)acetic acid]
Cmax as multiple of dog microsomal DGAT1 enzyme IC50 ([1]; 4 mg/kg/day dose group, 3 month study): 10 x IC50
Cmin as multiple of DGAT1 IC50 ([1]; 4 mg/kg/day dose group, 3 months study): 1 x IC50
Cmin as multiple of DGAT1 IC50 ([1]; 1000 mg/kg/day dose group, 7 day study): 54 x IC50
Cmax as multiple of dog microsomal DGAT1 enzyme IC50 ([1]; 1000 mg/kg/day dose group, 'in the same study' (3 month study as printed)): 292 x IC50
activity against human DGAT2 (human DGAT2): No activity
exposure at Cmin at which additional skin findings occurred (sebaceous glands [2]; Crl:CD-1(ICR), mouse, in vivo, 6 months): ≥ 7 x FDM
skin photomicrograph appearance of sebaceous glands (Figure 5 B) (sebaceous glands [2]; male mouse, 300 mg/kg/day for 6 months): substantial atrophy of sebaceous glands with much reduced sebum and mild hyperkeratosis
reversibility of sebaceous gland atrophy (sebaceous glands [2]; mice, 4 week drug-free period after 1 month of treatment): complete reversibility
group mean severity of sebaceous gland atrophy (sebaceous glands [2]; mice, after 1 month (28 days) of dosing): minimal to mild
group mean severity of sebaceous gland atrophy (sebaceous glands [2]; mice, after 6 months (180 days) of dosing): minimal to moderate
sebaceous gland atrophy (sebaceous glands [2]; mice, high doses for up to 7 days): absent
duration of DGAT1 inhibition required for microscopical detection of sebaceous gland atrophy (sebaceous glands [2]; mouse): more than 7 days
skin photomicrograph appearance of sebaceous glands (Figure 1 B) (sebaceous glands [2]; mouse, 300 mg/kg/day for 28 days): severely atrophic sebaceous glands with substantially reduced sebum
skin photomicrograph appearance of sebaceous glands (Figure 1 C) (sebaceous glands [2]; mouse, 300 mg/kg/day for 28 days followed by drug free recovery period of 28 days): normal appearance of sebum filled sebaceous glands
exposure at Cmin with mild to moderate sebaceous gland atrophy (sebaceous glands [2]; [5]): 46 x FDM
exposure at Cmin with minimal to mild sebaceous gland atrophy (sebaceous glands [2]; [5]): 7 - 40 x FDM
exposure at Cmax at which additional skin findings occurred (sebaceous glands [2]; mouse, in vivo): at least 50 x FDM
histopathological findings in the skin (sebaceous glands [2]; mouse, in vivo): restricted to sebaceous gland atrophy only
significant increase in inflammation in the skin (sebaceous glands [2]; mouse, in vivo): not seen
skin findings associated with sebaceous gland atrophy (sebaceous glands [2]; mouse, in vivo): epidermal hyperplasia, occasional hair follicle atrophy, as well as in-life observation of hair-loss and skin lesions
tolerability (sebaceous glands [2]; mouse, in vivo): well tolerated
IC50 (human ACAT2): > 35 µM
effects on the skin of healthy volunteers (skin): no effects
IC50 (dog DGAT1): ~0.06 µM
IC50 (human DGAT1): ~0.08 µM
Cmax as multiple of mouse microsomal DGAT1 enzyme IC50 [3, 6]: 4 x IC50
Cmin as multiple of DGAT1 IC50 [3, 6]: 1 x IC50
Cmax as multiple of mouse microsomal DGAT1 enzyme IC50 [3, 7]: 1581 x IC50
Cmin as multiple of DGAT1 IC50 [3, 7]: 766 x IC50
sex difference in exposure ([3]; male versus female mice): 1.5 - 3 x
IC50 (mouse DGAT1): ~0.1 µM
duration of DGAT1 inhibition required for microscopical detection of sebaceous gland atrophy (sebaceous glands [4]; dog): more than 7 days
exposure at Cmin with mild to moderate sebaceous gland atrophy (sebaceous glands [4]; dog): > 36 x FDM
exposure at Cmin with minimal to mild sebaceous gland atrophy (sebaceous glands [4]; dog): 7-54 x FDM
skin photomicrograph appearance of sebaceous glands (Figure 6 B) (sebaceous glands [4]; dog, 100 mg/kg/day for 6 months): atrophic sebaceous glands which contain little sebum
additional skin changes (occasional hair follicle atrophy, hair-loss and skin lesions) (sebaceous glands [4]; dog, in vivo): not observed
hyperkeratosis of the epithelium covering the infundibula of hair follicles (sebaceous glands [4]; dog, in vivo): minimal hyperkeratosis
significant increase in inflammation in the skin (sebaceous glands [4]; dog, in vivo): not seen
tolerability (sebaceous glands [4]; dog, in vivo): well tolerated
sebaceous gland atrophy (sebaceous glands [4]; dogs dosed for up to 7 days): absent
reversibility of sebaceous gland atrophy (sebaceous glands [4]; dogs, 4 week drug-free period after 3 months of dosing): complete reversibility
group mean severity of sebaceous gland atrophy (sebaceous glands [4]; dogs, after 3 months (90 days) of dosing): minimal to moderate
group mean severity of sebaceous gland atrophy (sebaceous glands [4]; dogs, after 14 days of dosing): minimal to mild
group mean severity of sebaceous gland atrophy (sebaceous glands [4]; dogs, highest dose group after 6 months (180 days)): moderate
